# Source: US7000348B2, “Method and composition for tree root colonization” (Vamtech, LLC, priority 2003, dated 2006)
# Entries after “also recorded” stand apart in the source; their conditions may differ.
# Assays:
# Assay type in all cases: in vivo
# [1] = test system: Douglas-fir seedlings; assay: Foliar nutrient analysis of Douglas-fir needles
# Excerpt: (§1) Douglas-fir seeds were sown in 2 cm^3 in cells in Stryoblock™ containers filled with soilless mix (50:50 peat:vermiculite) in the greenhouse at the J. Herbert Stone Nursery in Central Point, Oreg. Soluble fertilizer applications, temperatures, and hardening off procedure were the same as those described for Ponderosa pine above. No pesticides were used on the crop during this period, and no mycorrhizal inoculum was applied prior to applications of treatments.
# Eight months after sowing, fourteen Douglas-fir seedlings were randomly sampled (2 or 3 from 6 trays) to determine colonization by the mycorrhizal fungus R. parksii. No colonization by R. parksii was present at this time. The treatments applied to three trays of 20 seedlings each were a control with no potassium formononetinate or mycorrhizal inoculation (C), potassium formononetinate only at 20 mg/L of soilless mix (M-20), mycorrhizal inoculation only at 100,000 R. parksii spores/cavity applied with a graduated pipette (R-100), mycorrhizal inoculation with R. parksii at 100,000 spores per cavity plus potassium formononetinate at 20 mg/L of soilless mix (0.11 per 60 seedlings) (M-20+R-100), mycorrhizal inoculation with R. parksii at 100,000 spores per cavity plus potassium formononetinate at 60 mg/L of soilless mix (0.33 per 60 seedlings) (M-60+R-100), and mycorrhizal inoculation with R. parksii at 50,000 spores cavity plus potassium formononetinate at 20 mg/L of soilless mix (M-20+R-50). Potassium formononetinate was provided by VAMTech L.L.C., Lansing, Mich.
# (§2) The diameter of all seedlings in all of the treatments was then measured with a caliper. Needle samples for Ponderosa pine and Douglas-fir were collected from 4 randomly selected seedlings in each treatment for foliar analysis. Samples were analyzed for total nitrogen and phosphorus (Kjeldahl digest with ammonia and orthophosphate read on an auto-analyzer), and extractable potassium (microwave digestion) with inductively couples argon plasma spectrometer (ICPMS).
# All trials were conducted in a randomized complete block design. Analyses of variance (ANOVA) were performed separately for seedling caliper, nutrient content, and mycorrhizal colonization (Steel and Torrie 1980). Means comparisons were calculated using Fisher's LSD (least significant difference). Residuals from the performed ANOVA's were examined using normal probability plots, tests that the residuals come from normal distributions and plots of residuals versus predicted values. Before analysis, mycorrhizal colonization data as logarithmically transformed to compensate for log-normally distributed values (Steel and Torrie 1980).
# [2] = test system: R. rubescens; assay: Mycorrhizal colonization of Ponderosa pine seedlings by Rhizopogon (root tip tally); conditions: potassium formononetinate 60 mg/L with R. rubescens spores vs spores alone
# Procedure: (§3) Ponderosa pine seeds were sown in a soilless mix (50:50 peat:vermiculite) in 2 cm^3 cells in STRYOBLOCK™ containers (Beaver Plastics, Corvallis, Oreg.) inside the greenhouse at the J. Herbert Stone Nursery in Central Point, Oreg. Eight weeks after germination, all emerging ponderosa pine seedlings were inoculated with 100,000 spores each of the ectomycorrhizal fungus R. rubescens using a liquid suspension applied via a traveling irrigation boom. Liquid spore suspension was prepared by maceration of R. rubescens sporocarps in distilled water for 10 min, followed by serial dilution with distilled water. Spore concentrations were determined using a hemacytometer. Soluble fertilizer (250 ppm N, 60 ppm P and 158 ppm K plus micronutrients) was applied with irrigation for optimum growth. Temperatures were held between 65° F. and 75° F. in the greenhouse. The seedlings were hardened off about six months after sowing by reducing the amount of irrigation water and fertilizer in it (to 50 ppm N, 31 ppm P and 150 ppm K plus micronutrients). No pesticides were used on the crop during this period. Ponderosa pine seedlings were then each inoculated again with 100,000 spores of R. rubescens using the same inoculation procedure. […]
# (§4) All trials were conducted in a randomized complete block design. […] Means comparisons were calculated using Fisher's LSD (least significant difference). […]
# [3] = test system: Douglas-fir seedlings; assay: Caliper diameter of Douglas-fir seedlings
# Excerpt: as §1
# (§5) Eight months after sowing, fourteen Douglas-fir seedlings were randomly sampled (2 or 3 from 6 trays) to determine colonization by the mycorrhizal fungus R. parksii. No colonization by R. parksii was present at this time. […]
# as §2, with “Needle samples for Ponderosa pine and Douglas-fir were collected from 4 randomly selected seedlings in each treatment for foliar analysis.” left out
# as §4
# [4] = test system: Ponderosa pine seedlings; assay: Caliper diameter of Ponderosa pine seedlings; conditions: potassium formononetinate 60 mg/L added to R. rubescens inoculation
# Procedure: as §3, with “greenhouse.” for “greenhouse. The seedlings were hardened off about six months after sowing by reducing the amount of irrigation water and fertilizer in it (to 50 ppm N, 31 ppm P and 150 ppm K plus micronutrients). No pesticides were used on the crop during this period. Ponderosa pine seedlings were then each inoculated again with 100,000 spores of R. rubescens using the same inoculation procedure.”
# as §2, with “Needle samples for Ponderosa pine and Douglas-fir were collected from 4 randomly selected seedlings in each treatment for foliar analysis.” left out
# as §4
# [5] = test system: Ponderosa pine seedlings; assay: Foliar nutrient analysis of Ponderosa pine needles; conditions: 60 mg/L, vs seedlings treated with R. rubescens alone
# Procedure: as §3, with “greenhouse.” for “greenhouse. The seedlings were hardened off about six months after sowing by reducing the amount of irrigation water and fertilizer in it (to 50 ppm N, 31 ppm P and 150 ppm K plus micronutrients). No pesticides were used on the crop during this period. Ponderosa pine seedlings were then each inoculated again with 100,000 spores of R. rubescens using the same inoculation procedure.”
# as §2, with “Needle samples for Ponderosa pine and Douglas-fir were collected from 4 randomly selected seedlings in each treatment for foliar analysis.” left out
# as §4
# [6] = test system: R. parksii; assay: Mycorrhizal colonization of Douglas-fir roots by Rhizopogon (root tip tally)
# Excerpt: as §1, §5, §4
# [7] = M = potassium formononetinate mg/L, R = R. parksii spores x1000 per cavity
# [8] = R. parksii and potassium formononetinate, over the untreated control, but not over R. parksii alone
smiles,measurement,setting,value
"COc1ccc(-c2coc3cc([O-])ccc3c2=O)cc1.[K+] [potassium formononetinate, potassium salt of 7-hydroxy, 4′-methoxy isoflavone]","potassium content, Douglas-fir (effect in words)","[1]; 60 mg/L plus R. parksii, vs untreated plants, R. parksii alone and any other treatment",significantly higher
same,"foliar nitrogen content, Douglas-fir needles",[1]; [7],1.29%
same,"foliar phosphorous content, Douglas-fir needles",[1]; [7],0.15%
same,"nitrogen content, Douglas-fir (effect in words)",[1]; [8],significantly increased
same,"phosphorus content, Douglas-fir (effect in words)",[1]; [8],significantly increased
same,"root colonization by Rhizopogon, Ponderosa pine (effect in words)",[2],significantly increased
same,"caliper diameter, Douglas-fir","[3]; thirteen months after sowing, M = potassium formononetinate mg/L, R = R. parksii spores x1000 per cavity",0.2 cm
same,"caliper size, Douglas-fir (effect in words)","[3]; vs untreated control, R. parksii alone or plus potassium formononetinate",increased caliper size over the control
same,"caliper diameter, Ponderosa pine (effect in words)",[4],not significantly increased; also recorded: not significantly affected
same,"nitrogen content, Ponderosa pine (effect in words)",[5],significantly increased
same,"root colonization by Rhizopogon, Douglas-fir (effect in words)",[6]; potassium formononetinate 60 mg/L with R. parksii spores,significantly increased
same,Mycorrhizal colonization of Douglas-fir roots by R. parksii,"[6]; thirteen months after sowing, M-20/M-60 = potassium formononetinate 20/60 mg/L of soilless mix, R-100/R-50 = 100,000/50,000 R. parksii spores per cavity",0%
